US5684151A, “1-arylsulphonyl, arylcarbonyl and 1-arylphosphonyl-3-phenyl-1,4,5,6-tetrahydropyridazines” (priority 1995, dated 1997)
Like-named read-outs stand apart in the source and are kept apart here.

How the values were obtained:
[1] = system: mouse (MC3T3-E1) and human (TE-85) osteoblast-line cells; assay type: cell-based
Procedure, shortened: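 MC3T3-E1 or TE-85 cells were plated overnight in DMEM/25 mM HEPES/10% FBS and then preincubated 24 h in 0.1% FBS. Compounds were added for 20 h, followed by a 4 h pulse of 0.4 μCi ^3H-thymidine. Incorporated radioactivity served as the proliferation index, expressed as % of control (control = 100%).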

[2] = biological target: T1, progestin receptor from rabbit uterus (Oryctolagus cuniculus, UniProt P06186); assay: Progestin receptor binding (3H-R5020 displacement); conditions: rabbit uterine cytosol, 4° C., 18 h, read-out: IC50: Binding affinity for the progestin receptor from rabbit uterus
T1 construct: Cytosolic progestin receptor were obtained by mixing rabbit uterine tissue with a Tris buffer; from tissue; host or cells: rabbit uterus cytosol
T1 sequence (P06186 whole entry): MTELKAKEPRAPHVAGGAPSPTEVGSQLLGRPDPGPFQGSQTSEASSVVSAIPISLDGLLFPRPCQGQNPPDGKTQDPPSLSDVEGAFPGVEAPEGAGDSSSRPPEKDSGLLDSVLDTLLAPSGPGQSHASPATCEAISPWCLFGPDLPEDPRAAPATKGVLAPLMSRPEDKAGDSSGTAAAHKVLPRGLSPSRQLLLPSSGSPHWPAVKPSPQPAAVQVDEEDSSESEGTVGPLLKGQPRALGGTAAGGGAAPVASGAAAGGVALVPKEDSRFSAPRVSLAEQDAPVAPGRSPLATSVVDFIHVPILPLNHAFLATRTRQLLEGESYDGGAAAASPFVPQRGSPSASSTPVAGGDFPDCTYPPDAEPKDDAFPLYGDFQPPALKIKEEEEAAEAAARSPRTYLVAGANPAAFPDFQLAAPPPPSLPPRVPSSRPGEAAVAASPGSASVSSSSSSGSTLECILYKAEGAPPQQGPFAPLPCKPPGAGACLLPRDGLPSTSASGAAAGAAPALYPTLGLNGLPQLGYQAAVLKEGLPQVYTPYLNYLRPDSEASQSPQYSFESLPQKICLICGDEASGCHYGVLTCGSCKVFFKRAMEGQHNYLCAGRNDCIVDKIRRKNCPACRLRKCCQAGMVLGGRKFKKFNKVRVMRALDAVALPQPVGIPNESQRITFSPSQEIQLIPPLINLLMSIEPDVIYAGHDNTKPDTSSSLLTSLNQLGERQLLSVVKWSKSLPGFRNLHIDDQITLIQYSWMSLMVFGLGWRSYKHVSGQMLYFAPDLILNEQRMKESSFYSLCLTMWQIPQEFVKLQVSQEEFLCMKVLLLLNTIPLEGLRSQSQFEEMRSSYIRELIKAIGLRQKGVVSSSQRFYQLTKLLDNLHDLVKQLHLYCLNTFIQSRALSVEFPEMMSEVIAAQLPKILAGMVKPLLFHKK
Procedure, shortened: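 Rabbit uterine cytosol in Tris buffer pH 7.4 with EDTA, DTT and molybdate was incubated with 3H-R5020 and test compound (5% DMSO final) at 4 °C for about 18 h. Bound ligand was separated with dextran-coated charcoal and counted by scintillation; IC50 is 50% radioligand displacement, with nonspecific binding defined by excess unlabelled ligand.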

Row | Compound | Osteoblast Cell Proliferation, 3H-thymidine incorporation vs control (100%) ([1]; 10^-6) [%] | Osteoblast Cell Proliferation, 3H-thymidine incorporation vs control (100%) ([1]; 10^-7) [%] | Osteoblast Cell Proliferation, 3H-thymidine incorporation vs control (100%) ([1]; 10^-8) [%] | Osteoblast Cell Proliferation, 3H-thymidine incorporation vs control (100%) ([1]; 10^-9) [%] | Osteoblast Cell Proliferation, 3H-thymidine incorporation vs control (100%) ([1]; 10^-10) [%] | IC50 [2] [µM]
1 | O=S(=O)(/C=C/c1ccccc1)N1CCCC(c2ccc(Cl)c(Cl)c2)=N1 [Compound 167] | 126 | 109 | 136 | 144 | 165 | 0.00593
2 | O=S(=O)(/C=C/c1cccc(Cl)c1)N1CCCC(c2ccc(Cl)c(Cl)c2)=N1 [Compound 172] | 134 | 108 | 103 | 106 | 113 | 0.032
3 | COc1ccc(C(=O)N2CCCC(c3ccc(OC)cc3)=N2)cc1 [Compound 182] | 95 | 108 | 118 | 139 | 115 | 100
4 | COc1ccc(C(=O)N2CCCC(c3ccccc3)=N2)cc1 [Compound 183] | 88 | 133 | 131 | 136 | 135 | 100
5 | COc1ccc(C2=NN(C(=O)c3ccc(Cl)cc3)CCC2)cc1 [Compound 184] | 84 | 102 | 113 | 146 | 131 | 100
6 | COc1ccc(C2=NN(C(=O)c3cccc(Cl)c3)CCC2)cc1 [Compound 188] | 105 | 129 | 130 | 135 | 137 | 100
7 | COc1ccc(C2=NN(C(=O)c3ccc(Cl)c(Cl)c3)CCC2)cc1 [Compound 189] | 89 | 112 | 98 | 122 | 128 | 100
8 | COc1ccc(C2=NN(C(=O)c3ccc(Br)cc3)CCC2)cc1 [Compound 190] | 121 | 135 | 130 | 139 | 158 | 100
9 | O=C(c1ccccc1)N1CCCC(c2ccc(Cl)cc2)=N1 [Compound 191, 1-Benzoyl-3-(4-chlorophenyl)-1,4,5,6-tetrahydropyridazine] | 86 | 133 | 126 | 133 | 123 | 100
10 | Cc1ccc(C(=O)N2CCCC(c3ccc(Cl)cc3)=N2)cc1 [Compound 192] | 115 | 131 | 128 | 132 | 148 | 100
11 | O=C(c1ccc(Cl)cc1)N1CCCC(c2ccc(Cl)cc2)=N1 [Compound 193] | 107 | 161 | 162 | 190 | 208 | 10
12 | COc1ccc(C(=O)N2CCCC(c3ccc(Cl)cc3)=N2)cc1 [Compound 194] | 93 | 130 | 136 | 138 | 144 | 100
13 | CC(C)(C)c1ccc(C(=O)N2CCCC(c3ccc(Cl)cc3)=N2)cc1 [Compound 195] | 103 | 114 | 125 | 127 | 136 | 100
14 | O=C(c1ccccc1)N1CCCC(c2ccccc2)=N1 [Compound 196] | 102 | 97 | 102 | 92 | 104 | 100
15 | CC(C)(C)c1ccc(C(=O)N2CCCC(c3ccccc3)=N2)cc1 [Compound 197] | 87 | 89 | 91 | 81 | 52 | 100
16 | O=C(c1ccc(Br)cc1)N1CCCC(c2ccc(Cl)cc2)=N1 [Compound 198] | 94 | 97 | 112 | 99 | 85 | 10
17 | O=C(c1cccc(Cl)c1)N1CCCC(c2ccc(Cl)cc2)=N1 [Compound 199] | 105 | 104 | 96 | 83 | 61 | 100
18 | O=C(c1ccc(Cl)c(Cl)c1)N1CCCC(c2ccc(Cl)cc2)=N1 [Compound 200] | 97 | 109 | 107 | 120 | 88 | 5
19 | COc1ccc(C2=NN(C(=O)c3ccc(C(C)(C)C)cc3)CCC2)cc1 [Compound 201] | 89 | 117 | 91 | 69 | 52 | 100
